The text below walks through data of publication PMC12767106, “In Situ Assembly of Transformable Monopeptide on Activated Neutrophils Attenuates NETs‐Induced Hepatocellular Carcinoma Metastasis by Disrupting NE Nuclear Translocation” (Advanced Science, 2025).

A short description of series [1]: Zeta potential before and after incubation with NE. It counts as physicochemical. The conditions noted are these: 20 µM, mean ± s.d., n = 3. The protocol:
Submitted to Advanced Science temperature. Following the incubation, 10 µL of the solution was added to a copper mesh at 0 and 24 h. Filter paper was used to remove any extra droplets after an overnight stay. The samples were then stained for five minutes with uranyl acetate and then rinsed for one minute with water (10 µL). Finally, dried samples were observed by TEM (Talos 120C, Thermo Fisher Scientific, USA). DLS (Zetasizer Nano ZS, UK) was used to assess the solution for hydrodynamic size and zeta potential at 0 and 24 h following the incubation. Then, the nanofiber structure at 0 h and 24 h after incubation of FTP-NPs was examined with Circular Dichroism (CD) Spectra (Chirascan, UM, Britain). In addition, the variation of fluorescence emission spectra of PpIX by […]
transformation of FTP-NPs.
Pyrene molecules were employed as an indicator to determine the critical aggregation concentration (CAC) of nanoparticles by comparing the fluorescence of their third and first emissive peaks. […] The fluorescence spectra of pyrene (excitation, 335 nm) in different NPs dilutions were recorded. The fluorescence intensity ratio (I3/I1) of the third and first emissive peaks was measured for CAC calculation. […]
Figure S3. […] (a, b) Changes in fluorescence and UV–vis absorption of FTP-NPs following the gradual addition of water (from 0 to 99.5%) to a solution of NPs in Dimethyl Sulfoxide (DMSO). […]

In series [2] the test system is Hepa1-6/luc murine HCC cells. Nature of the series: CCK-8 cytotoxicity. The conditions noted are these: CCK-8, 24 h, different dosages. Format: cell-based, mouse. As for the experimental part:
10 minutes to remove unbound particles, and the supernatant was collected. […]
In vitro cytotoxicity assay
The CCK-8 assay was used to assess the cell viability of Hepa1-6/luc, resting neutrophils, and activated neutrophils. Following the seeding of 1*10^4 cells per well on a 96-well plate, the cells were subjected to different dosages of FTP-NPs and NFTP-NPs (medium: DMSO = 99:1 v/v). After 24 hours, the cells were incubated for two hours with 10 µL of CCK-8 solution. Finally, a microplate reader (Tecan Infinite M200, Switzerland) was used to measure cell viability based on the absorbance values.
Targeting the capability of NEBP
To evaluate the targeting capability of NE-binding peptide (NEBP), the harvested resting neutrophils and […]

Series [3] concerns mouse red blood cells (RBCs). Nature of the series: Hemolysis assay. Format: cell-based. The conditions noted are these: 2% RBC suspension in PBS, 1 h, 37 °C, absorbance at 541 nm, triplicate. As for the experimental part:
Hemolysis Assay of FTP-NPs
To assess the hemolytic activity of FTP-NPs, red blood cells (RBCs) were harvested from C57BL/6 mice (aged 6–8 weeks, female). The mice were euthanized by cervical dislocation, and blood was collected via cardiac puncture into heparinized tubes. Blood was then immediately diluted with an equal volume of phosphate-buffered saline (PBS) and centrifuged at 1500 g for 10 minutes to isolate the RBCs. The supernatant was discarded, and the RBC pellet was washed three times with PBS to remove any residual plasma and other cellular components. The final RBC suspension was adjusted to a 2% hematocrit using PBS. FTP-NPs were synthesized as described previously. Briefly, FTP-NPs were prepared by self-assembly of peptidic […]
concentration was tested in triplicate. For the hemolysis assay, 200 μL of the 2% RBC suspension was incubated with 200 μL of FTP-NPs at the specified concentrations in a 96-well plate for 1 hour at 37°C under gentle shaking. […] The hemoglobin released into the supernatant was quantified by measuring the absorbance at 541 nm (A541) using a microplate reader. The percentage of hemolysis was calculated using the following formula: Hemolysis %= (Asample−ANC)/ (APC−ANC) *100%. Where Asample is the absorbance of the sample, ANC is the absorbance of the negative control, and APC is the absorbance of the positive control. […]

For PpIX-GFFVLK-EAIPMSIPPEVK [FTP-NPs], the “zeta potential, initial NPs” value in series [1] (before fibrillar transformation) is on record as 21.7±0.6 mV. Besides, the “zeta potential after fibrillar transformation” value in series [1] (with NE for 24 h) amounted to 9.2±0.2 mV. The survival rate entry in series [2] is on record as “over 95%”. Further, in series [3], the “maximum observed hemolysis rate” value is “approximately 0.9%”.
